Reference: PubChem BioAssay (NCI)
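Each compound was tested at five concentrations against cells in 96-well plates for 48 hours. Abbreviation: GI50, concentration required for 50% inhibition of growth. At the TGI there is no net growth.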

Legend:
Test in all cases: NCI tumour cell line growth inhibition, 48 h
[1] = system: HT29 colon
[2] = system: MOLT-4 leukemia
[3] = system: OVCAR-3 ovarian
[4] = system: PC-3 prostate
[5] = system: RPMI-8226 leukemia
[6] = system: SF-268 CNS
[7] = system: SF-295 CNS
[8] = system: SK-MEL-2 melanoma
[9] = system: SK-MEL-5 melanoma
[10] = system: SR leukemia

SMILES: C[C@@]1(C(=O)O)CCC[C@]2(C)C1CC[C@]13C[C@@](O)(CO)[C@](O)(CC[C@]12O)C3 (stereo not given in full)
- GI50 [1]: > 100 µM
- TGI [1]: > 100 µM
- GI50 [2]: > 100 µM
- TGI [2]: > 100 µM
- GI50 [3]: > 100 µM
- TGI [3]: > 100 µM
- GI50 [4]: > 100 µM
- TGI [4]: > 100 µM
- GI50 [5]: > 100 µM
- TGI [5]: > 100 µM
- GI50 [6]: > 100 µM
- TGI [6]: > 100 µM
- GI50 [7]: > 100 µM
- TGI [7]: > 100 µM
- GI50 [8]: > 100 µM
- TGI [8]: > 100 µM
- GI50 [9]: > 100 µM
- TGI [9]: > 100 µM
- GI50 [10]: > 100 µM
- TGI [10]: > 100 µM

SMILES: CN(C)c1cc2c(Nc3ccc4c(cnn4Cc4ccccc4)c3)ncnc2cn1
- GI50 [1]: 8.98 µM
- TGI [1]: > 25 µM
- GI50 [2]: 9.47 µM
- TGI [2]: > 25 µM
- GI50 [3]: 6.43 µM
- TGI [3]: > 25 µM
- GI50 [4]: 10 µM
- TGI [4]: > 25 µM
- GI50 [5]: 10.9 µM
- TGI [5]: > 25 µM
- GI50 [6]: > 24.1 µM
- TGI [6]: > 25 µM
- GI50 [7]: 7.58 µM
- TGI [7]: > 23.1 µM
- GI50 [8]: 7.5 µM
- TGI [8]: 20.9 µM
- GI50 [9]: 7.61 µM
- TGI [9]: > 20.5 µM
- GI50 [10]: 12.8 µM
- TGI [10]: > 25 µM

SMILES: Cc1ccc(NC(=S)C#N)c(C)c1
- TGI [1]: > 100 µM
- TGI [2]: > 100 µM
- TGI [3]: > 100 µM
- TGI [4]: > 100 µM
- TGI [5]: 76 µM
- TGI [6]: > 100 µM
- TGI [7]: > 100 µM
- TGI [8]: > 100 µM
- TGI [9]: > 100 µM
- TGI [10]: > 100 µM

SMILES: Cc1ccnc2c(NC(C)CCCN)cc(O)c(O)c12 (stereo not given)
- GI50 [1]: 8.07 µM
- TGI [1]: 51.8 µM
- GI50 [2]: 6.61 µM
- TGI [2]: 34.5 µM
- GI50 [3]: 2.45 µM
- TGI [3]: 7.24 µM
- GI50 [4]: 17.1 µM
- TGI [4]: 53.8 µM
- GI50 [5]: 11 µM
- TGI [5]: 76.6 µM
- GI50 [6]: 21.2 µM
- TGI [6]: 74.2 µM
- GI50 [7]: 35.2 µM
- TGI [7]: > 100 µM
- GI50 [8]: > 100 µM
- TGI [8]: > 100 µM
- GI50 [9]: 17.6 µM
- TGI [9]: 42.1 µM
- GI50 [10]: 29.3 µM
- TGI [10]: 90.3 µM
